For the test, the target named is human Nav1.8 (Homo sapiens, UniProt Q9Y5Y9). Put plainly: SyncroPatch384PE assay (automated patch clamp). To be noted: human Nav1.8/b3 CHO cells. The test is classed as cell-based. As to the method:
Compounds were tested on recombinant human Nav1.8/b3 stably transfected CHO cells using the SyncroPatch384PE system (Nanion Technologies), an automated patch clamp device. Cells were cultured at 37° C./5% CO2 in Ham's F-12 supplemented with 10% fetal bovine serum, 100 U/mL penicillin G sodium, […] streptomycin sulfate and selection antibiotics (0.01 mg/mL Blasticidin, 0.4 mg/mL Zeocin and 0.25 mg/mL Hygromycin). On the day of the recordings, cells in culture dishes were washed twice with Hank's Balanced Salt Solution (HBSS) and treated with Accutase for approximately 20 minutes. Immediately before use in the SynchroPatch384PE using an 8-hole NPC-384 chip, the cells were washed in HBSS to remove the Accutase and re-suspended in extracellular solution. All experiments were performed at ambient temperature. Intracellular solution contained (mM): CsCl, 50; CsF, 90; MgCl2, 5; EGTA, 1; HEPES, 10; pH adjusted to 7.2 with CsOH. Extracellular solution contained (mM): NaCl, 137; KCl, 4.0; CaCl2), 3.8; MgCl2, 1; HEPES, 10; Glucose, 10; pH adjusted to 7.4 with NaOH. 100 nM tetrodotoxin (TTX) was added to the extracellular solution to block endogenous TTX-sensitive sodium currents.
Compounds were tested in quadruplicate in 0.3% DMSO and 0.03% pluronic Acid. Compounds were diluted 1:3.33 in extracellular solution to create an 8-point concentration response curve. Each plate contained a historical positive control and up to ten compounds. 300 μM tetracaine and 0.3% DMSO+0.03% pluronic acid were used as high and low controls respectively.
Whole cell patch clamp recordings were conducted according to Nanion's standard procedure for SyncroPatch384PE®. Cells were held at a holding potential of −120 mV. A depolarization step to 10 mV for 30 ms was applied (P1 measurement), followed by a hyperpolarization step to −100 mV for 100 ms. An inactivation step at −35 mV for 10 sec was applied before stepping to −100 mV for 20 ms, followed by a step to 10 mV for 30 ms (P2 measurement) and then back to −100 mV for 30 ms. Sweep interval was 15 sec. Following establishment of the whole-cell configuration in extracellular solution, cells were washed in extracellular solution containing 0.3% DMSO and 0.03% pluronic acid to stabilize the baseline current. Compounds were then applied by the SynchroPatch384 PE system into each well and the current was recorded for five minutes in extracellular solution, followed by application of tetracaine to achieve full block at the end of experiment. The potency of the compounds was assessed on two read-outs, resting state block (P1 measurement) or inactivated state block (P2 measurement) to obtain IC50 values. Values were normalized to high (tetracaine) and low (DMSO+pluronic acid) controls.
Examples 1 to 219 and Examples 225 to 236 are assayed using SyncroPatch384PE assay described above.
A general note: The patch-clamp technique gives a direct electrical read-out from membranes.

Where [1] appears, read: inactivated state block (P2 measurement), read-out: P2 IC50.
Where [2] appears, read: resting state block (P1 measurement), read-out: P1 IC50.

Our source for the IC50 values is patent publication US20250154109A1, “SODIUM CHANNEL BLOCKING COMPOUNDS, DERIVATIVES THEREOF, AND METHODS OF THEIR USE” (LATIGO BIOTHERAPEUTICS, INC, priority 2022, published 2025).

Where a name gives a salt, the structure may show the parent alone. Read-outs that look alike come from different tables or passages of the source.

Broadly, the IC50 is the midpoint of a concentration-inhibition curve.

Sequence of human Nav1.8 (Q9Y5Y9 whole entry): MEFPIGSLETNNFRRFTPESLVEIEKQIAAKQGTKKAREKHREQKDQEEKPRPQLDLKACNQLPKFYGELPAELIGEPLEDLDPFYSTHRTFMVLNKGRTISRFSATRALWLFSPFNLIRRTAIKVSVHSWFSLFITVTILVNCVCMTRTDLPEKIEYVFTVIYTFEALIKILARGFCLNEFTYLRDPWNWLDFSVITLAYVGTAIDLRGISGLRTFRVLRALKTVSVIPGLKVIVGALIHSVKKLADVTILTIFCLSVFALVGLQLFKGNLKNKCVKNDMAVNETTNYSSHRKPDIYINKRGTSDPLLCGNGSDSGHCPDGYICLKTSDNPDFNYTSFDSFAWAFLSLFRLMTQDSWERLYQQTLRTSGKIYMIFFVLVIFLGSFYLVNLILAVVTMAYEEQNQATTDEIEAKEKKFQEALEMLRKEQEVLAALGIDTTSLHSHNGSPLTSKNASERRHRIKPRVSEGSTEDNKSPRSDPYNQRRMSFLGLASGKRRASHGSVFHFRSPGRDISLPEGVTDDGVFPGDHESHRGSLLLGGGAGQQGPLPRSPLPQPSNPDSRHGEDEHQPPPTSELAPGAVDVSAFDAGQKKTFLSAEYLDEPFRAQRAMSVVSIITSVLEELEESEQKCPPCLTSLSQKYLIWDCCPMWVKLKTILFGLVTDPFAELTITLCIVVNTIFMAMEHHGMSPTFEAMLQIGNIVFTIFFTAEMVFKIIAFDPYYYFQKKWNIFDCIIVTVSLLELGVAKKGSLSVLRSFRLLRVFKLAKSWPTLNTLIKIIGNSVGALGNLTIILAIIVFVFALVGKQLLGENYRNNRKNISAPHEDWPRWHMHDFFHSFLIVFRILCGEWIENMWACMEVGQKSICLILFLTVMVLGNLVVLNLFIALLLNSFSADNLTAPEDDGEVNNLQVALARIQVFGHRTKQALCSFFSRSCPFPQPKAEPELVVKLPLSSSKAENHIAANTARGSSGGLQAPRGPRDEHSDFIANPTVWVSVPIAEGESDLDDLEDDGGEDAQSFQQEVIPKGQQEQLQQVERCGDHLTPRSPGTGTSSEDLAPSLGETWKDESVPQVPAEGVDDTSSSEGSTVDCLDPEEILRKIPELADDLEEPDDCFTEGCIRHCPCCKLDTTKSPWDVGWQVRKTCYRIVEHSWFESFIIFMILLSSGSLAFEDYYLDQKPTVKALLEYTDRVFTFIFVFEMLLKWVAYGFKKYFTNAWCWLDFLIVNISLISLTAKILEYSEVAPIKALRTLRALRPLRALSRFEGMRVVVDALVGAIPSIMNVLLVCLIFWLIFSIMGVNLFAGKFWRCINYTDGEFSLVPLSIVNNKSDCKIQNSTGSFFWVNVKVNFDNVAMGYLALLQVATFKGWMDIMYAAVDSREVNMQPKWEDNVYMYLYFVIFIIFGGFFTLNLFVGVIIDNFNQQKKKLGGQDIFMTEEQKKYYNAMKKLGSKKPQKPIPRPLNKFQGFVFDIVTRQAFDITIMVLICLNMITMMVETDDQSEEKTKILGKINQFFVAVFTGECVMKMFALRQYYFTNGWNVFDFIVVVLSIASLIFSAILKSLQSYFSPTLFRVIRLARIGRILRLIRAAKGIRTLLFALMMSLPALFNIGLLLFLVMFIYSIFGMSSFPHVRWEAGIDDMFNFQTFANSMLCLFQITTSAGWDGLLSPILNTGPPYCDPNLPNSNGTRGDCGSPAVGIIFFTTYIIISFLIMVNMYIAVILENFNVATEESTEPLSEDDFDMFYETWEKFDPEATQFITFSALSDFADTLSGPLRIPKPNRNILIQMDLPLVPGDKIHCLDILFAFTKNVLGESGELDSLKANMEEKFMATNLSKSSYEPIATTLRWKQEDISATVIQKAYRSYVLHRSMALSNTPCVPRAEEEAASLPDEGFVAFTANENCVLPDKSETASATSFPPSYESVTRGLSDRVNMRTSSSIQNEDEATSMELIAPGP

Take `Cc1c(C(F)(F)F)nnc(N2CCCC(F)(F)CC2)c1C(=O)Nc1cccc([S@@](C)(=O)=NC(=O)C2(N)CCC2)c1` [Example 234, (R)-N-(3-(N-(1-aminocyclobutane-1-carbonyl)-S-methylsulfonimidoyl)phenyl)-3-(4,4-difluoroazepan-1-yl)-5-methyl-6-(trifluoromethyl)pyridazine-4-carboxamide]: the IC50 reads like this: under setting [1], no more than 5 nM; under setting [2], no more than 5 nM.

Turning to `Cc1nc(-c2cnn(C)c2)nc(N2CCCC(F)(F)CC2)c1C(=O)Nc1cccc([S@](C)(=N)=O)c1` [Example 150, (R)-4-(4,4-difluoroazepan-1-yl)-6-methyl-2-(1-methyl-1H-pyrazol-4-yl)-N-(3-(S-methylsulfonimidoyl)phenyl)pyrimidine-5-carboxamide], the IC50 by setting is: under setting [1], 100 to 200 nM; under setting [2], 100 to 200 nM.

`Cc1c(Cl)c(C(F)(F)F)nc(N2CCCC(F)(F)CC2)c1C(=O)Nc1cccc([S@@](C)(=N)=O)c1` [Example 108, (S)-5-chloro-2-(4,4-difluoroazepan-1-yl)-4-methyl-N-(3-(S-methylsulfonimidoyl)phenyl)-6-(trifluoromethyl)nicotinamide]: the IC50 runs as follows: under setting [1], no more than 5 nM; under setting [2], no more than 5 nM.

In the case of `CS(=N)(=O)c1cccc(NC(=O)c2cc(C(F)(F)F)nnc2N2CCC3(CC2)CC3)c1` (stereo not drawn) [Example 14, N-(3-(S-methylsulfonimidoyl)phenyl)-3-(6-azaspiro[2.5]octan-6-yl)-6-(trifluoromethyl)pyridazine-4-carboxamide], the IC50 is greater than 200 nM under setting [1] and greater than 200 nM under setting [2].

Take `Cc1c(C#N)nnc(N2CCCC(F)(F)CC2)c1C(=O)Nc1cccc([S@](C)(=N)=O)c1` [Example 139, (R)-6-cyano-3-(4,4-difluoroazepan-1-yl)-5-methyl-N-(3-(S-methylsulfonimidoyl)phenyl)pyridazine-4-carboxamide]: the IC50 under setting [1] lay within 100 to 200 nM and the IC50 under setting [2] is greater than 200 nM.

Consider `NC(=O)c1cccc(NC(=O)c2nnc(C(F)(F)F)cc2N2CCCC(F)(F)CC2)c1` [Example 38, N-(3-Carbamoylphenyl)-4-(4,4-difluoroazepan-1-yl)-6-(trifluoromethyl)pyridazine-3-carboxamide], for which the IC50 is greater than 200 nM under setting [1] and greater than 200 nM under setting [2].

Turning to `Cc1c(C#N)c(C(F)(F)F)nc(N2CCCC(F)(F)CC2)c1C(=O)Nc1cccc([S@@](C)(=O)=NC(=O)C2CNC2)c1` [Example 57, (R)-N-(3-(N-(azetidine-3-carbonyl)-S-methylsulfonimidoyl)phenyl)-5-cyano-2-(4,4-difluoroazepan-1-yl)-4-methyl-6-(trifluoromethyl)nicotinamide formate], the IC50 reads like this: under setting [1], no more than 5 nM; under setting [2], no more than 5 nM.

For the molecule `Cc1cc(C(F)(F)F)nc(N2CCCC(F)(F)CC2)c1C(=O)Nc1cccc([S@](C)(=N)=O)c1` [Example 33, (R)-2-(4,4-Difluoroazepan-1-yl)-4-methyl-N-(3-(S-methylsulfonimidoyl)phenyl)-6-(trifluoromethyl)nicotinamide], the IC50 is no more than 5 nM under setting [1] and no more than 5 nM under setting [2].

Take `Cc1nc(N2CCCC(F)(F)CC2)c(C(=O)Nc2ccnc(S(=N)(N)=O)c2)cc1C(F)(F)F` (stereo not drawn) [Example 114, 2-(4,4-difluoroazepan-1-yl)-6-methyl-N-(2-sulfamidimidoylpyridin-4-yl)-5-(trifluoromethyl)nicotinamide]: the half-maximal inhibitory concentration (IC50) was no more than 5 nM under setting [1] and no more than 5 nM under setting [2].

On to `Cc1ccc(-c2nnc(N3CCCC(F)(F)CC3)c(C(=O)Nc3cccc([S@](C)(=N)=O)c3)c2C)cc1` [Example 225, (R)-3-(4,4-difluoroazepan-1-yl)-5-methyl-N-(3-(S-methylsulfonimidoyl)phenyl)-6-(p-tolyl)pyridazine-4-carboxamide], for which the IC50 by setting is: under setting [1], 5 to 50 nM; under setting [2], 5 to 50 nM.

As for `C[S@@](=N)(=O)c1cc(NC(=O)c2cc(Cl)c(C(F)(F)F)cc2N2CCCC(F)(F)CC2)ccn1` [Example 199, (R)-5-chloro-2-(4,4-difluoroazepan-1-yl)-N-(2-(S-methylsulfonimidoyl)pyridin-4-yl)-4-(trifluoromethyl)benzamide], the IC50 under setting [1] was no more than 5 nM and the IC50 under setting [2] was no more than 5 nM.

On to `Cc1c(C#CCO)cnc(N2CCCC(F)(F)CC2)c1C(=O)Nc1cccc([S@](C)(=N)=O)c1` [Example 123, (R)-2-(4,4-difluoroazepan-1-yl)-5-(3-hydroxyprop-1-yn-1-yl)-4-methyl-N-(3-(S-methylsulfonimidoyl)phenyl)nicotinamide], for which the IC50 is, setting by setting: under setting [1], greater than 200 nM; under setting [2], greater than 200 nM.

`Cc1ccsc1-c1cnc(N2CCCC(F)(F)CC2)c(C(=O)Nc2cccc(S(C)(=N)=O)c2)c1C` (stereo not drawn) [Example 113, 2-(4,4-difluoroazepan-1-yl)-4-methyl-N-(3-(S-methylsulfonimidoyl)phenyl)-5-(3-methylthiophen-2-yl)nicotinamide]: the 50% inhibitory concentration (IC50) reads like this: under setting [1], no more than 5 nM; under setting [2], no more than 5 nM.

Take `CNCC(=O)N=[S@](C)(=O)c1cccc(NC(=O)c2c(N3CCCC(F)(F)CC3)ncc(C#N)c2C)c1` [Example 126, (R)-5-cyano-2-(4,4-difluoroazepan-1-yl)-4-methyl-N-(3-(S-methyl-N-(methylglycyl)sulfonimidoyl)phenyl)nicotinamide]: the IC50 under setting [1] is no more than 5 nM and the IC50 under setting [2] was no more than 5 nM.

As for `Cc1c(C(F)(F)F)nnc(N2CCCCCC2)c1C(=O)Nc1cccc([S@](C)(=N)=O)c1` [Example 10, (R)-3-(azepan-1-yl)-5-methyl-N-(3-(S-methylsulfonimidoyl)phenyl)-6-(trifluoromethyl)pyridazine-4-carboxamide], the IC50 runs as follows: under setting [1], 50 to 100 nM; under setting [2], 50 to 100 nM.

Turning to `Cc1c(-c2cnn(C)c2)nnc(N2CCCC(F)(F)CC2)c1C(=O)NC12CC(C(N)=O)(C1)C2` [Example 141, N-(3-carbamoylbicyclo[1.1.1]pentan-1-yl)-3-(4,4-difluoroazepan-1-yl)-5-methyl-6-(1-methyl-1H-pyrazol-4-yl)pyridazine-4-carboxamide], the half-inhibitory concentration (IC50) under setting [1] was no more than 5 nM and the IC50 under setting [2] is no more than 5 nM.

Consider `C=CCCc1ccc(C(=O)Nc2cccc([S@](C)(=N)=O)c2)c(N2CCCC(F)(F)CC2)n1` [Example 35, (R)-6-(But-3-en-1-yl)-2-(4,4-difluoroazepan-1-yl)-N-(3-(S-methylsulfonimidoyl)phenyl)nicotinamide], for which the IC50 was no more than 5 nM under setting [1] and no more than 5 nM under setting [2].

Turning to `Cc1c(C(F)(F)F)nnc(N2CCCC(F)(F)CC2)c1C(=O)Nc1cccc([S@@](C)(=O)=NC(=O)CN2CC(F)(F)C2)c1` [Example 198, (R)-3-(4,4-difluoroazepan-1-yl)-N-(3-(N-(2-(3,3-difluoroazetidin-1-yl)acetyl)-S-methylsulfonimidoyl)phenyl)-5-methyl-6-(trifluoromethyl)pyridazine-4-carboxamide], the IC50 under setting [1] was no more than 5 nM and the IC50 under setting [2] was no more than 5 nM.

With `Cc1c(-c2cnn(C)c2)cnc(N2CCCC(F)(F)CC2)c1C(=O)Nc1cccc(S(C)(=N)=O)c1` (stereo not drawn) [Example 83, 2-(4,4-difluoroazepan-1-yl)-4-methyl-5-(1-methyl-1H-pyrazol-4-yl)-N-(3-(S-methylsulfonimidoyl)phenyl)nicotinamide], the IC50 runs as follows: under setting [1], 50 to 100 nM; under setting [2], 50 to 100 nM.

Regarding `Cc1c(-c2cnn(C)c2)cnc(N2CCCC(F)(F)CC2)c1C(=O)NC12CC(C(=O)O)(C1)C2` [Example 142, 3-(2-(4,4-difluoroazepan-1-yl)-4-methyl-5-(1-methyl-1H-pyrazol-4-yl)nicotinamido)bicyclo[1.1.1]pentane-1-carboxylic acid], the IC50 was no more than 5 nM under setting [1] and no more than 5 nM under setting [2].

`Cc1c(C(=O)Nc2cccc([S@](C)(=N)=O)c2)c(N2CCCC(F)(F)CC2)nc(C(F)(F)F)c1-c1ccc(C#N)cc1` [Example 131, (R)-5-(4-cyanophenyl)-2-(4,4-difluoroazepan-1-yl)-4-methyl-N-(3-(S-methylsulfonimidoyl)phenyl)-6-(trifluoromethyl)nicotinamide]: the IC50 by setting is: under setting [1], no more than 5 nM; under setting [2], no more than 5 nM.
